Results on two compounds are retold here after patent US20070117770A1, “Human ribosomal DNA (rDNA) and ribosomal RNA (rRNA) nucleic acids and uses thereof” (Cylene Pharmaceuticals, Inc., priority 2005, published 2007).

Holding throughout (assay): Protein kinase inhibition assay
Holding throughout (format): biochemical

The target in one assay is Abl(h) (Homo sapiens, UniProt P00519). The conditions noted are these: for Mean (Counts - Blanks) / Activity (% Control) / Counts: 2.5 μM. As to the method:
(§1) Certain compounds were tested for activity in protein kinase inhibition assays. All substrates were dissolved and diluted to working stocks in de-ionized water, apart from histone H1 (10× working stock in 20 mM MOPS pH 7.0), PDKtide (10× working stock in 50 mM Tris pH 7.0) ATF2 (which is typically stored at a 20× working stock in 50 mM Tris pH 7.5, 150 mM NaCl, 0.1 mM EGTA, 0.03% Brij-35, 50% glycerol, 1 mM benzamidine, 0.2 mM PMSF and 0.1% R-mercaptoethanol), KKLNRTLSFAEPG (SEQ ID NO:203) and RRRLSFAEPG (SEQ ID NO:204) (50 mM HEPES pH 7.4) and GGEEEEYFELVKKKK (SEQ ID NO:205) (20 mM MOPS pH 7.0). All kinases were pre-diluted to a 10× working concentration prior to addition into the assay. The composition of the dilution buffer for each kinase is detailed below.
(§2) In a final reaction volume of 25 μl, Abl (h) (5-10 mU) is incubated with 8 mM MOPS pH 7.0, 0.2 mM EDTA, 50 μM EAIYAAPFAKKK (SEQ ID NO:206), 10 mM MgAcetate and [gamma-33P-ATP] (specific activity approx. 500 cpm/pmol, concentration as required). The reaction is initiated by the addition of the MgATP mix. After incubation for 40 minutes at room temperature, the reaction is stopped by the addition of 5 μl of a 3% phosphoric acid solution. 10 μl of the reaction is then spotted onto a P30 filtermat and washed three times for 5 minutes in 75 mM phosphoric acid and once in methanol prior to drying and scintillation counting.

In a further assay the target is Pyk2(h) (Homo sapiens, UniProt Q14289). The following applies: read-out: percent residual activity of Pyk2(h). As to the method: as §1
Chain of Pyk2(h) (Q14289 whole entry): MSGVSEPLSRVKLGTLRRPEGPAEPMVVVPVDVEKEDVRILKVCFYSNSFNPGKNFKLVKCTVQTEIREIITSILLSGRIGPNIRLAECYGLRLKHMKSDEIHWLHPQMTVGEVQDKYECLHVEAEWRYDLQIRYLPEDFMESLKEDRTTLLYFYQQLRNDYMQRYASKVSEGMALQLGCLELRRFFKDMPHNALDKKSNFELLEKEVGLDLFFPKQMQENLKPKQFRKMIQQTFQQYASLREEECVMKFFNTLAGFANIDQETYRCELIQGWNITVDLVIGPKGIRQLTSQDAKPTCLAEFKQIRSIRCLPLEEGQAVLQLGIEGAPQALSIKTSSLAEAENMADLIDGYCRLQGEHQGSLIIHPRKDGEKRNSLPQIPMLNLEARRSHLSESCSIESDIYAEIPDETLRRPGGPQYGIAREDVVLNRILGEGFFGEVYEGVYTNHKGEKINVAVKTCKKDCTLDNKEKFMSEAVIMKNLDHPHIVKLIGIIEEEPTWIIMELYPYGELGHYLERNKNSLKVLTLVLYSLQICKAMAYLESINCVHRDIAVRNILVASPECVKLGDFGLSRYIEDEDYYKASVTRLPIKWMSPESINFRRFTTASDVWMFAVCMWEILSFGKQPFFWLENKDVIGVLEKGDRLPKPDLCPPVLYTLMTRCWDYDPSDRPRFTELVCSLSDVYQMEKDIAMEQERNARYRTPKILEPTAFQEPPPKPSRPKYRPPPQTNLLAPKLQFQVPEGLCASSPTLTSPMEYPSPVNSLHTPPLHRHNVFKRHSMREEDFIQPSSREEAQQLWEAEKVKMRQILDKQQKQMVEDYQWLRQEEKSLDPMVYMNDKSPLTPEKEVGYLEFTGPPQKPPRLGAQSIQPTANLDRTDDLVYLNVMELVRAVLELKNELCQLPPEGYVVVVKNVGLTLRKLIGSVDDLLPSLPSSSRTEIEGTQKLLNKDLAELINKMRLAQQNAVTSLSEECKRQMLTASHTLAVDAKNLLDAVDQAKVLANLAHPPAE
as §2, with “Pyk2” for “Abl”, “0.1 mg/ml poly(Glu, Tyr) 4:1,” for “50 μM EAIYAAPFAKKK (SEQ ID NO:206),”, “Filtermat A” for “P30 filtermat”

For a further assay, the target named is cKit(D816V)(h) (Homo sapiens, UniProt P10721, D816V). The conditions noted are these: read-out: percent residual activity of cKit(D816V)(h). Here is the method: as §1
Chain of cKit(D816V)(h) (P10721 26-976 D816V): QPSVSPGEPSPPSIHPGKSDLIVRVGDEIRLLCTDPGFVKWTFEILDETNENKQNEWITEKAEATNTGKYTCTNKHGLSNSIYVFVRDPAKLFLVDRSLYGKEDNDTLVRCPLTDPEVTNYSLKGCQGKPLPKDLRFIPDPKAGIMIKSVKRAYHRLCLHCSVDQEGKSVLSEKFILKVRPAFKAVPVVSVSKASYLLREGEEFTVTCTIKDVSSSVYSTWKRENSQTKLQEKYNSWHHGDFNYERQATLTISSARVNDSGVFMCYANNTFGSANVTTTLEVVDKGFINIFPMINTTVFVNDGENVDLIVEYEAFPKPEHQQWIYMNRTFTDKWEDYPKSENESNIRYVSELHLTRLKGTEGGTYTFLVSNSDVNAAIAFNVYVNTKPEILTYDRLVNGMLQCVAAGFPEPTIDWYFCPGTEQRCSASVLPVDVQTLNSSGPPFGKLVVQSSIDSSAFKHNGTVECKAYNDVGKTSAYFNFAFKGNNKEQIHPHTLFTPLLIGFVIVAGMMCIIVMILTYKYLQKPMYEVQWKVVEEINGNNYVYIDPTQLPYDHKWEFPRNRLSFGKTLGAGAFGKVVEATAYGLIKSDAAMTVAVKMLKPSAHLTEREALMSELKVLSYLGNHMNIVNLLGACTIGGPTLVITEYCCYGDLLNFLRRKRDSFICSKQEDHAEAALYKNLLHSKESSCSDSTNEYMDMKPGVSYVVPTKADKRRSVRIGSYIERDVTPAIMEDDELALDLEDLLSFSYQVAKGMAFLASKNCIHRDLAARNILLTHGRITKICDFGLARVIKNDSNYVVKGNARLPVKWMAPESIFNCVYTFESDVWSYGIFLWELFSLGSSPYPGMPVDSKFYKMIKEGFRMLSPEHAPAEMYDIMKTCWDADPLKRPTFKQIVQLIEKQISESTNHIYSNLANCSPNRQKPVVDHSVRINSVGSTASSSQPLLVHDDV
In a final reaction volume of 25 μl, cKit (D816V) (h) (5-10 mU) is incubated with 8 mM MOPS pH 7.0, 0.2 mM EDTA, 10 mM MnCl2, 0.1 mg/ml poly(Glu, Tyr) 4:1, 10 mM MgAcetate and [gamma-33P-ATP] (specific activity approx. 500 cpm/pmol, concentration as required). The reaction is initiated by the addition of the MgATP mix. After incubation for 40 minutes at room temperature, the reaction is stopped by the addition of 5 μl of a 3% phosphoric acid solution. […]

The next assay has as its target FGFR3(h) (Homo sapiens, UniProt P22607). The following applies: read-out: percent residual activity of FGFR3(h). As to the method: as §1
as §2, with “FGFR3” for “Abl”, “0.1 mg/ml poly(Glu, Tyr) 4:1, 10 mM MnCl2,” for “50 μM EAIYAAPFAKKK (SEQ ID NO:206),”, “[y-33P-ATP]” for “[gamma-33P-ATP]”, “Filtermat A” for “P30 filtermat”

In a further assay the target is EphA2(h) (Homo sapiens, UniProt P29317). The conditions noted are these: read-out: percent residual activity of EphA2(h). Here is the method:
as §1
as §2, with “EphA2” for “Abl”, “0.1 mg/ml poly(Glu, Tyr) 4:1,” for “50 μM EAIYAAPFAKKK (SEQ ID NO:206),”, “Filtermat A” for “P30 filtermat”

For a further assay, the target named is CDK2/cyclinE(h) (Homo sapiens, UniProt P24941). The conditions noted are these: read-out: percent residual activity of CDK2/cyclinE(h). Here is the method:
as §1
as §2, with “CDK2/cyclinE” for “Abl”, “0.1 mg/ml histone H1,” for “50 μM EAIYAAPFAKKK (SEQ ID NO:206),”

[1] abbreviates: 45 micromolar ATP, single replicates.
Where [2] appears, read: 45 micromolar ATP, n = 2, read-out: Mean Activity (% Control).
Where [3] appears, read: 45 micromolar ATP, single replicates, read-out: Activity (% Control).
[4] abbreviates: read-out: percent residual activity of Abl(h).

Values joined by “and” are separate entries in the source; they are usually repeats but may differ in a detail not shown here. Identical values can stand only once. Like-named read-outs stand apart in the source and are kept apart here.

Chain of Abl(h) (P00519 whole entry): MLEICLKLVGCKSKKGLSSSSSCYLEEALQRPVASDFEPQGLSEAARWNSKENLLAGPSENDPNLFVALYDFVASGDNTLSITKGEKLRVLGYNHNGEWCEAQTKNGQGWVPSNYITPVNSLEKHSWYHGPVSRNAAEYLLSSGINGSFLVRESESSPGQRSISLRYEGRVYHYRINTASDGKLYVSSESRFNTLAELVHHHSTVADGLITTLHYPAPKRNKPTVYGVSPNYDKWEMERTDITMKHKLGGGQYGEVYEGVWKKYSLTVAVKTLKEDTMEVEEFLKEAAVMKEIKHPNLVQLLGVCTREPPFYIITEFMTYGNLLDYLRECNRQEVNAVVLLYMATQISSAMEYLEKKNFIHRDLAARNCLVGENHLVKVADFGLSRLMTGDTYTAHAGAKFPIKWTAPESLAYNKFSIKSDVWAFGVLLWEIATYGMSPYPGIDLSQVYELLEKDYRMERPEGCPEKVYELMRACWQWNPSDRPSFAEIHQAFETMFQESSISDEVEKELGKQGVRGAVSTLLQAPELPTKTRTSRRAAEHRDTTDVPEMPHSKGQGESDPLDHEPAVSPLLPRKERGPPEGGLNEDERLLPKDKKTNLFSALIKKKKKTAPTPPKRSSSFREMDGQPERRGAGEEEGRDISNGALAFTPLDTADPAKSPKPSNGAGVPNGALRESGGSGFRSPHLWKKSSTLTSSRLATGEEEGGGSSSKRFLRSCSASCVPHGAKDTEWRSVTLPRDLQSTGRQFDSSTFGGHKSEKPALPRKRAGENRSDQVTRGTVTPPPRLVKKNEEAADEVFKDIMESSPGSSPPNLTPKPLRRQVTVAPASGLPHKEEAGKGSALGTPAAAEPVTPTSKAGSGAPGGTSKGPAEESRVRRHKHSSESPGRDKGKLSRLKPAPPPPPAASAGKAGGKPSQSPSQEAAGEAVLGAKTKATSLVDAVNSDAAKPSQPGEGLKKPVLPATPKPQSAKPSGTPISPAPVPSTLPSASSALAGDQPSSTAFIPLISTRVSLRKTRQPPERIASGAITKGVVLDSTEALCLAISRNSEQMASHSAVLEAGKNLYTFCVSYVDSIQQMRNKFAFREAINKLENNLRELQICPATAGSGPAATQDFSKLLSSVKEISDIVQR
Chain of EphA2(h) (P29317 24-976): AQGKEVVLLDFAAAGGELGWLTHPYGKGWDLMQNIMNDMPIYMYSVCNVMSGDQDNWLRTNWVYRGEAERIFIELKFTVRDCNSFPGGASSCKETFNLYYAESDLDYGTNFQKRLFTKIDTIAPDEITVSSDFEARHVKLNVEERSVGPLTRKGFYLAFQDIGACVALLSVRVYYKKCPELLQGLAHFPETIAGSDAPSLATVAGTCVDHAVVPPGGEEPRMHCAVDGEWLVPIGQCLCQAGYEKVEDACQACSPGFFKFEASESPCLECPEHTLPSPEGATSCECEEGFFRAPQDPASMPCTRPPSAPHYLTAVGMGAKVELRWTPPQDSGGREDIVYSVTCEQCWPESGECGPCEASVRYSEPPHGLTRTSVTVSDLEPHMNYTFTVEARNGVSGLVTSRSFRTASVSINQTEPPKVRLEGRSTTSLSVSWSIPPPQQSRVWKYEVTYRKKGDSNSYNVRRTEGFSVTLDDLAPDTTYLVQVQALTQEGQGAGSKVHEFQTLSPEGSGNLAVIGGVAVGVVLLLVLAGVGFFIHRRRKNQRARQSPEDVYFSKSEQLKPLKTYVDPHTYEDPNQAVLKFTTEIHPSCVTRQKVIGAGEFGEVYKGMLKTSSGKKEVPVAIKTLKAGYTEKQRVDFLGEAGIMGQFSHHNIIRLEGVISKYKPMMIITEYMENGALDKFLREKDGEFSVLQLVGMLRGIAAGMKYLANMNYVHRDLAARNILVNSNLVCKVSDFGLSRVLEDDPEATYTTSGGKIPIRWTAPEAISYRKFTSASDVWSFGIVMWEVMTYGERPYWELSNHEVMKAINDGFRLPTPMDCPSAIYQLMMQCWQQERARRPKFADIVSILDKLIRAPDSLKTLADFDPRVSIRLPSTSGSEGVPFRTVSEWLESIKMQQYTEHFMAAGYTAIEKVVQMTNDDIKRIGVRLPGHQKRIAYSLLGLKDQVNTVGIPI
Chain of FGFR3(h) (P22607 23-806): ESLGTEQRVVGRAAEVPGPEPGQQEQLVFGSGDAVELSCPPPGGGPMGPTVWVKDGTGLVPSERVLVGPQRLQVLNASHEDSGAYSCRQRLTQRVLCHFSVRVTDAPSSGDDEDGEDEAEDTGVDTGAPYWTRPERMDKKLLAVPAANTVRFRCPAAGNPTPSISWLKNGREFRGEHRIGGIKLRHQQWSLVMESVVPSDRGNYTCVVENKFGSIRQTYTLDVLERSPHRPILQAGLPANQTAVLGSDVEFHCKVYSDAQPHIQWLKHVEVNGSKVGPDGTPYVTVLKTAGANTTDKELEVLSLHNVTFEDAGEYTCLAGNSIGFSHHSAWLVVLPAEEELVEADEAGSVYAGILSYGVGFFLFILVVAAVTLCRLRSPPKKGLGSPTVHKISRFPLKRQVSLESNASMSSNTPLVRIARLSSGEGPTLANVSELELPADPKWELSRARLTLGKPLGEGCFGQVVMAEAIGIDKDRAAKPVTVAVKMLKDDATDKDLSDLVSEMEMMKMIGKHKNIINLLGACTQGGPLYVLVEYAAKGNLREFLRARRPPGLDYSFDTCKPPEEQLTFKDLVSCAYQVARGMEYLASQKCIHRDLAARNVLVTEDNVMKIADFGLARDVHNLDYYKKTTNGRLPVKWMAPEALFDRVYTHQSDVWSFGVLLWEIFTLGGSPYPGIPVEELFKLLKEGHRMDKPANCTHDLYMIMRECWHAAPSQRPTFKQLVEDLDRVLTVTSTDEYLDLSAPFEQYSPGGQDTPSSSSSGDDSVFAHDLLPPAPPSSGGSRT

Regarding `CN1CCCC1CCNC(=O)c1cn2c3c(c(N4CCC(c5cnccn5)C4)c(F)cc3c1=O)Oc1cc3ccccc3cc1-2` (stereo not shown) [Compound A-1], the “Mean (Counts - Blanks)” value on Abl(h) (45 micromolar ATP) was 12522. Moreover, the “Activity (% Control)” value on Abl(h) (setting [1]) was found to be 25 % Control. In addition, the Counts at Abl(h) (setting [1]) is 15236 and 14630. Further, the remaining activity at 2.5 µM was determined as 26% on Abl(h) (setting [2]); 27% at Abl(h) (setting [3]); 26% at Abl(h) (setting [4]); 95% on Pyk2(h); 104% on cKit(D816V)(h); 101% on FGFR3(h). The values for the remaining activity at 2.5 µM on EphA2(h) and at CDK2/cyclinE(h) were 101% and 102%, respectively.

Take `CC(=O)N1CCN(c2ccc3c(=O)c(C(=O)NCCN4CCCC4)c4n(C)c5ccccc5n4c3n2)CC1` [Compound B-1]: the “Mean (Counts - Blanks)” value at Abl(h) (45 micromolar ATP) came to 47944. Also, the “Activity (% Control)” value on Abl(h) (setting [1]) was determined as 98 % Control. The Counts at Abl(h) (setting [1]) is 51051 and 49659. Moreover, the remaining activity at 2.5 µM on Abl(h) (setting [2]) is 100%; at Abl(h) (setting [3]) it was 101%; on Abl(h) (setting [4]), 100%; on Pyk2(h), 105%; at cKit(D816V)(h), 103%; on FGFR3(h), 116%. The remaining activity at 2.5 µM amounted to 102% at EphA2(h) and 117% on CDK2/cyclinE(h).
